Test results reported in article PMC10482691, “LTP induction by structural rather than enzymatic functions of CaMKII” (Nature, 2023).
Where “and” joins values, the source holds several entries; their conditions need not be identical. Identical values can stand only once.

Experiments:
CaMKIIα(h) = CaMKIIα(h) (Homo sapiens, UniProt Q9UQM7); experiment: Kinase selectivity panel (residual activity at 1 μM); type: biochemical; conditions: inhibitor at 1 μM; read-out: residual kinase activity in % of maximal activity
PKG1α(h) = PKG1α(h) (Homo sapiens, UniProt Q13976); experiment: as above; type: biochemical; conditions: inhibitor at 1 μM; read-out: residual kinase activity in % of maximal activity
[1] = target: GFP–CaMKII WT / mCh-GluN2B-c tail in HEK293 cells (Homo sapiens, UniProt Q9UQM7); experiment: Ionomycin-induced colocalization of GFP–CaMKII WT and mCherry-2BC in HEK293 cells; type: cell-based; conditions: 10 μM AS283
Method: HEK cells were grown and transfected with expression vectors for GFP–CaMKII mutants and pDisplay-mCh-GluN2B-c tail (2BC) as previously described[24],[57]; the GluN2B construct used included an S1303A mutation to avoid potential complications by differential phosphorylation of this regulatory site[13],[27] in the different conditions with or without kinase inhibitors. GFP–CaMKII colocalization with GluN2B in response to a Ca^2+ stimulus induced by 10 μM ionomycin was monitored for 5–10 min at 32 °C in imaging buffer (0.87× Hanks Balanced Salt Solution, 25 mM HEPES, pH 7.4, 2 mM glucose, 2 mM CaCl2, 1 mM MgCl2) by fluorescence microscopy. Images were acquired on a Zeiss Axiovert 200M equipped with a climate control chamber using SlideBook software (Intelligent Imaging Innovations; v.6.0). Colocalization analysis was performed by calculating the Pearson’s correlation (correlation index) with ImageJ of pDisplay-mCh-2BC and GFP–CaMKII within the cytoplasm of HEK cells after background subtraction.

CaMKIIβ(h) = CaMKIIβ(h) (Homo sapiens, UniProt Q13554); experiment: Kinase selectivity panel (residual activity at 1 μM); type: biochemical; conditions: inhibitor at 1 μM; read-out: residual kinase activity in % of maximal activity
FGFR1(h) = FGFR1(h) (Homo sapiens, UniProt P11362); experiment: as above; type: biochemical; conditions: inhibitor at 1 μM; read-out: residual kinase activity in % of maximal activity
[2] = system: CA3–CA1 Schaffer collateral pathway LTP; experiment: LTP at CA3–CA1 synapse, field recordings in acute hippocampal slices of WT mice; type: cell-based, mouse; conditions: for LTP quantification (fEPSP slope, last 10 min post-HFS, normalized to baseline): 15 min before HFS to 5 min after
MAPK2(h) = MAPK2(h) (Homo sapiens, UniProt P28482); experiment: Kinase selectivity panel (residual activity at 1 μM); type: biochemical; conditions: inhibitor at 1 μM; read-out: residual kinase activity in % of maximal activity
Ret(h) = Ret(h) (Homo sapiens, UniProt P07949); experiment: as above; type: biochemical; conditions: inhibitor at 1 μM; read-out: residual kinase activity in % of maximal activity
CaMKIIδ(h) = CaMKIIδ(h) (Homo sapiens, UniProt Q13557); experiment: as above; type: biochemical; conditions: inhibitor at 1 μM; read-out: residual kinase activity in % of maximal activity
[3] = system: GFP–CaMKII in rat hippocampal neurons; experiment: cLTP-induced CaMKII synaptic enrichment in dissociated hippocampal cultures (GFP–CaMKII WT); type: cell-based; conditions: for CaMKII synaptic enrichment: GFP-CaMKII WT, individual neurons, sheet 4e
[4] = target: purified CaMKIIα binding to GST–GluN2B-c S1303A (Homo sapiens, UniProt Q9UQM7); experiment: CaMKII binding to immobilized GST–GluN2B-c S1303A in vitro
[5] = target: T1, GFP–CaMKII F89G / mCh-GluN2B-c tail in HEK293 cells (Homo sapiens, UniProt Q9UQM7, F89G); experiment: Ionomycin-induced colocalization of GFP–CaMKII F89G and mCherry-2BC in HEK293 cells; type: cell-based; conditions: 10 µM NM-PP1
T1 construct: expressed in transfected cells; host or cells: HEK293

[6] = system: CA1 LTP in CaMKII F89G-expressing slices; experiment: LTP field recordings in slices of CaMKIIα KO mice injected with AAV-mScarlet-CaMKII-F89G; type: cell-based, mouse; conditions: for LTP time course, normalized response per slice (sheet 5d): individual slices, NM-PP1 vs Vehicle, in %
Method: Stereotactic injections were performed on P24 CaMKIIα KO mice. Animals were anesthetized with an intraperitoneal injection of 2,2,2-Tribromoethanol (250 mg kg^−1) and then head fixed to a stereotactic frame (David Kopf Instruments). AAVs (0.2–0.5 µl) were injected into intermediate CA1 at a rate of […] using a syringe pump (World Precision Instruments). Coordinates (in millimetres) were anterior–posterior: −3.17; mediolateral: ±3.45 (relative to Bregma); and dorsoventral: −2.5 (relative to pia). To confirm specificity of the injection site following LTP recordings, slices were fixed in 4% paraformaldehyde; then, they were coverslipped and imaged on an Olympus slide scanning microscope.
WT and mutant mouse hippocampal slices were prepared using P56–P70 mice. Isoflurane-anesthetized mice were rapidly decapitated, and the brain was dissected in an ice-cold high-sucrose solution containing 220 mM sucrose, 12 mM MgSO4, 10 mM glucose, 0.2 mM CaCl2, 0.5 mM KCl, 0.65 mM NaH2PO4, 13 mM NaHCO3 and 1.8 mM ascorbate. Transverse hippocampal slices (400 μm) were made using a tissue chopper (McIlwain) and transferred into 32 °C ACSF containing 124 mM NaCl, 3.5 mM KCl, 1.3 mM NaH2PO4, 26 mM NaHCO3, 10 mM glucose, 2 mM CaCl2, 1 mM MgSO4 and 1.8 mM ascorbate. All slices were recovered in 95% O2/5% CO2 for at least 1.5 h before experimentation.
For electrophysiological slice recording experiments, a glass micropipette (typical resistance of 0.4–0.8 megaohm when filled with ACSF) was used to record fEPSPs from the CA1 dendritic layer in response to stimulation of the Schaffer collaterals using a tungsten bipolar electrode. Slices were continually perfused with 30.5 °C ± 0.5 °C ACSF at a rate of 2.5 ± 0.5 ml min^−1 during recordings. Stimuli were delivered every 20 s, and three responses (1 min) were averaged for analysis. Data were analysed using WinLTP software with slope calculated as the initial rise from 10 to 60% of the response peak. Input–output curves were generated by increasing the stimulus intensity at a constant interval until a maximum response or population spike was noted to determine stimulation that elicits 50% of maximum slope. […] A stable baseline was acquired for a minimum of 20 min at 50% maximum slope before high-frequency stimulation (HFS; 2 × 100 Hz, 10 s interval) was applied. Responses were recorded for 40 or 60 min after HFS. Change in slope was calculated as a ratio of the average slope of the 20 min baseline (before HFS). Bar graphs of the percentage of fEPSP slope were calculated by averaging the last 10 min time points post-HFS and normalized to baseline.

[7] = system: GFP–CaMKII F89G in rat hippocampal neurons; experiment: cLTP-induced CaMKII synaptic enrichment in dissociated hippocampal cultures (GFP–CaMKII F89G); type: cell-based; conditions: for CaMKII synaptic enrichment: GFP-CaMKII F89G, individual neurons, sheet 4e

Sequence of PKG1α(h) (Q13976 whole entry): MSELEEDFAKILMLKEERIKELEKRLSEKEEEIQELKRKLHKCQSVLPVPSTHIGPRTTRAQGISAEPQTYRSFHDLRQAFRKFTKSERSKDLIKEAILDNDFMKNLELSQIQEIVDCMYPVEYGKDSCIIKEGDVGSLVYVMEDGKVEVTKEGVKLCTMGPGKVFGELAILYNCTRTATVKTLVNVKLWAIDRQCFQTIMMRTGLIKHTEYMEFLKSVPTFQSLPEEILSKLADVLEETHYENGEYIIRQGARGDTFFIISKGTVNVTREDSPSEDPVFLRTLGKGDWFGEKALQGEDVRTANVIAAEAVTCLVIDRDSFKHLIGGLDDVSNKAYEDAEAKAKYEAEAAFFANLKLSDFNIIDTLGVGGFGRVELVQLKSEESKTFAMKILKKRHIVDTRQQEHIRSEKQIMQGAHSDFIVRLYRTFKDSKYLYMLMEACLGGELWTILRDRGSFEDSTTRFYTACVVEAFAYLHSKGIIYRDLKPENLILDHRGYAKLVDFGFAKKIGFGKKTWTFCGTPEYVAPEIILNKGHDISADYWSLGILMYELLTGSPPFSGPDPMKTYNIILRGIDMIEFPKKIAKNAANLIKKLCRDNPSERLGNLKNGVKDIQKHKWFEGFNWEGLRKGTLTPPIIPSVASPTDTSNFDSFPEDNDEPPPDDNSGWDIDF
Sequence of CaMKIIδ(h) (Q13557 whole entry): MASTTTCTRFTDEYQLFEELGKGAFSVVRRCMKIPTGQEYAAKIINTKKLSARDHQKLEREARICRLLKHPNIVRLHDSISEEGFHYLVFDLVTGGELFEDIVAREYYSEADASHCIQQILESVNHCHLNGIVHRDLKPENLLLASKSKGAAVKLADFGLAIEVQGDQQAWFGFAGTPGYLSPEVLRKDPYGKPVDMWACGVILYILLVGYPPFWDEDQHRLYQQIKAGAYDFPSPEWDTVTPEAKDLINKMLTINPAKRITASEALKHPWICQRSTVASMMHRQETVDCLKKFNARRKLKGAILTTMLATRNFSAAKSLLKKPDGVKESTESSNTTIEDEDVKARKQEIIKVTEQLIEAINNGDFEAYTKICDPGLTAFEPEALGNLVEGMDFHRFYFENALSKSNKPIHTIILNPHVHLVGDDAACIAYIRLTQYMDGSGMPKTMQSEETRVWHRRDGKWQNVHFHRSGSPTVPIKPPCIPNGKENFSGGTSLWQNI
Sequence of MAPK2(h) (P28482 whole entry): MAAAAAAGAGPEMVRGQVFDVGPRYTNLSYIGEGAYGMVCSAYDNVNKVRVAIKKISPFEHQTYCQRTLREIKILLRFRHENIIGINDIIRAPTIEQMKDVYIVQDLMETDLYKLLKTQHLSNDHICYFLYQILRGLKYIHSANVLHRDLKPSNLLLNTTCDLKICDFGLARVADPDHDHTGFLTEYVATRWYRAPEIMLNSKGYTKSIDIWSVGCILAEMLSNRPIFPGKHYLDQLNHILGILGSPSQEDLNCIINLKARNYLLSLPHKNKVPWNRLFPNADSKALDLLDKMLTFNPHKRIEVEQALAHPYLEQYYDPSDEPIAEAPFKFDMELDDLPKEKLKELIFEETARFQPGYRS
T1 sequence (Q13224 836-1484 S1303A): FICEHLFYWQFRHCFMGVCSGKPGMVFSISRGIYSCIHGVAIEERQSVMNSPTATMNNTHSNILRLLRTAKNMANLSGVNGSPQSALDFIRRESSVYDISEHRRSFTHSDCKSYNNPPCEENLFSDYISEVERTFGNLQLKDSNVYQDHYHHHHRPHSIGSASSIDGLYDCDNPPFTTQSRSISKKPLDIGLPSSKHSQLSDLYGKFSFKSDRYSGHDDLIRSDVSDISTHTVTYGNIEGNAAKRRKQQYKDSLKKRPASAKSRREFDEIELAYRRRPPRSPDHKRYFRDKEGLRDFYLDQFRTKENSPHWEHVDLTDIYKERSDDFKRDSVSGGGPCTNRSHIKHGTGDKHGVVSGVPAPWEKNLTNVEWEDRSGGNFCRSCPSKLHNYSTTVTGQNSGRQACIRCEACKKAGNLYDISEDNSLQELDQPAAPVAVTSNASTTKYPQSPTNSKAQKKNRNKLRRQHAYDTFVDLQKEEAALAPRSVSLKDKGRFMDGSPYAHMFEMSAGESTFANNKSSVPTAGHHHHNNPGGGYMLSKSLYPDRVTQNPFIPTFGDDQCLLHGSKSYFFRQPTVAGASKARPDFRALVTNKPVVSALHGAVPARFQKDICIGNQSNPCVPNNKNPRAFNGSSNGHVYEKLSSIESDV
T1 sequence (Q9UQM7 whole entry F89G): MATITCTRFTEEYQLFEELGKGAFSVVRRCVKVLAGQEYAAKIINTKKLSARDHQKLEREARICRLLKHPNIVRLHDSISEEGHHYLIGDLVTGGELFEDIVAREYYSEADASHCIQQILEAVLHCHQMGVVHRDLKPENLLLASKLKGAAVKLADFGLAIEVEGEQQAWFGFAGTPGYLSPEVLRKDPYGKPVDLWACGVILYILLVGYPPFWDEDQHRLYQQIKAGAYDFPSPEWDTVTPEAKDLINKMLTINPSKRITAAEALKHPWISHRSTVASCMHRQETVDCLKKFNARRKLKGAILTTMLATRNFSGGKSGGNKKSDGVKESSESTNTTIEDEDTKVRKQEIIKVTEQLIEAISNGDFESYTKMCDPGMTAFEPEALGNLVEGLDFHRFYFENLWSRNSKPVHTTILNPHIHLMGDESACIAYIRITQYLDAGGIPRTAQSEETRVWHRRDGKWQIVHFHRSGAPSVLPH
Sequence of CaMKIIα(h) (Q9UQM7 whole entry): as the sequence (Q9UQM7 whole entry F89G) above, with G89F counted along it
Sequence of Ret(h) (P07949 29-1114): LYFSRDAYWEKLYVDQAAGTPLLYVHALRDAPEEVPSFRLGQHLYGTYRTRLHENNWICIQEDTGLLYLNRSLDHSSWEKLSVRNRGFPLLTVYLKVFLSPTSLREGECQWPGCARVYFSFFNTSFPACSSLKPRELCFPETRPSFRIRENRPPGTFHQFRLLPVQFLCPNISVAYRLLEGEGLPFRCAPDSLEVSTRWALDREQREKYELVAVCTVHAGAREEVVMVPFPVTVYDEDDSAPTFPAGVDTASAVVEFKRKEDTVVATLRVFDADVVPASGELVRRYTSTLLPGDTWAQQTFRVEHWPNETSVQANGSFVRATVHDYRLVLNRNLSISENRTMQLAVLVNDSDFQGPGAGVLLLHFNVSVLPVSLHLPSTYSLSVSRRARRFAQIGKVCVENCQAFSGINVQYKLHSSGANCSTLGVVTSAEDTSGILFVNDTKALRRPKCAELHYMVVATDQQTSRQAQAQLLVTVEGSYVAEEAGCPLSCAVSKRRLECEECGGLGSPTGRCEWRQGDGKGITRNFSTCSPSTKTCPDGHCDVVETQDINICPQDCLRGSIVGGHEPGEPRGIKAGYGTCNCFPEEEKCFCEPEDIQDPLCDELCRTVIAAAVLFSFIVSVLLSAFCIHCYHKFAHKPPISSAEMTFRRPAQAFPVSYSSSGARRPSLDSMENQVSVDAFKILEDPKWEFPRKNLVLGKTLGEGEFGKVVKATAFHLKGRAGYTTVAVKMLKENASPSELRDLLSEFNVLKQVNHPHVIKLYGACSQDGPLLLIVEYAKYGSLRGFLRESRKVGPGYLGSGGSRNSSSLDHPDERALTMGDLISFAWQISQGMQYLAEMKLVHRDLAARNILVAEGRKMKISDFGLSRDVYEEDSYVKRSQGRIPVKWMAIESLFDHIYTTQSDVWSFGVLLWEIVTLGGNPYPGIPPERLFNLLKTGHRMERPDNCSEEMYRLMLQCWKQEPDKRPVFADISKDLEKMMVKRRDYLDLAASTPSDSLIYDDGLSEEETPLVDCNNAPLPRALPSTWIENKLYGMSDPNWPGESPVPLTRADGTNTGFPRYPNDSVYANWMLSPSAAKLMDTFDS
Sequence of FGFR1(h) (P11362 22-822): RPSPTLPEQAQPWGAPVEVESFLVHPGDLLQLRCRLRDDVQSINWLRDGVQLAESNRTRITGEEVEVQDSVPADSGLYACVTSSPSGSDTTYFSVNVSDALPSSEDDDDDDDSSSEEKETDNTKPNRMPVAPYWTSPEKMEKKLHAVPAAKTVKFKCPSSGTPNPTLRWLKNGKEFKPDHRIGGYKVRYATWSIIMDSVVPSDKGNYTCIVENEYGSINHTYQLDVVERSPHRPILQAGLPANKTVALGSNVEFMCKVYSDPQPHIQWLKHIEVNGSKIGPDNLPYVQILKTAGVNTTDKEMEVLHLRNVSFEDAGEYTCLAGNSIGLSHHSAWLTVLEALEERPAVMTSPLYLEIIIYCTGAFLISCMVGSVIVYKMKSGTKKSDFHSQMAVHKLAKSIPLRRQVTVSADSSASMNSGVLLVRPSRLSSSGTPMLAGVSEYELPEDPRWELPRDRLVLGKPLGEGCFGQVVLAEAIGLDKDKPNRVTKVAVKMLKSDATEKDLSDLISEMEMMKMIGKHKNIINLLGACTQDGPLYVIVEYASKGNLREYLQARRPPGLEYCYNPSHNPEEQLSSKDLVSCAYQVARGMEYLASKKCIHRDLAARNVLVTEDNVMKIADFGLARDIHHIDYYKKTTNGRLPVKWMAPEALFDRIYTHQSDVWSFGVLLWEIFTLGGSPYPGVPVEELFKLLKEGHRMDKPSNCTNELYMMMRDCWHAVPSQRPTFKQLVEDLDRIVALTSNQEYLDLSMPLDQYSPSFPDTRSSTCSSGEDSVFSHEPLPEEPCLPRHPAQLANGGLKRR

Structure (SMILES): NCCNc1cccc(-c2ccnc3[nH]c4ccccc4c23)c1 [AS283]
- remaining activity at 1 µM (CaMKIIα(h)): 3%
- remaining activity at 1 µM (PKG1α(h)): 48%
- effect on CaMKII binding to GluN2B in colocalization assay [1]: did not inhibit
- remaining activity at 1 µM (CaMKIIβ(h)): 5%
- remaining activity at 1 µM (FGFR1(h)): 58%
- LTP quantification (fEPSP slope, last 10 min post-HFS, normalized to baseline) ([2]; AS283 10uM): 152.979% and 135.393% and 153.277%
- fEPSP slope (normalized to baseline) ([2]; AS283 10uM, Time (min) -4): 104.452% and 102.587% and 97.9392%
- fEPSP slope (normalized to baseline) ([2]; AS283 10uM, Time (min) -5): 97.455% and 97.2289% and 102.244%
- fEPSP slope (normalized to baseline) ([2]; AS283 10uM, Time (min) -6): 99.4541% and 99.1179% and 105.524%
- fEPSP slope (normalized to baseline) ([2]; AS283 10uM, Time (min) -7): 101.753% and 102.819% and 102.999%
- fEPSP slope (normalized to baseline) ([2]; AS283 10uM, Time (min) -8): 95.5559% and 104.449% and 104.231%
- fEPSP slope (normalized to baseline) ([2]; AS283 10uM, Time (min) -9): 92.9571% and 97.0204% and 97.7789%
- fEPSP slope (normalized to baseline) ([2]; AS283 10uM, Time (min) -10): 99.8539% and 98.6506% and 100.547%
- fEPSP slope (normalized to baseline) ([2]; AS283 10uM, Time (min) -11): 103.952% and 101.834% and 101.778%
- fEPSP slope (normalized to baseline) ([2]; AS283 10uM, Time (min) -12): 101.553% and 101.652% and 98.229%
- fEPSP slope (normalized to baseline) ([2]; AS283 10uM, Time (min) -13): 102.353% and 99.9177% and 99.6311%
- LTP quantification (fEPSP slope, last 10 min post-HFS, normalized to baseline) ([2]; AS283 30uM): 160.389% and 108.532% and 181.434% and 162.892% and 172.846% and 114.329% and 178.329%
- fEPSP slope (normalized to baseline) ([2]; AS283 30uM, Time (min) -4): 104.315% and 98.2615% and 101.701% and 97.3586% and 99.2226% and 91.7266% and 101.169%
- fEPSP slope (normalized to baseline) ([2]; AS283 30uM, Time (min) -5): 101.784% and 110.1% and 99.6307% and 92.306% and 111.307% and 95.4361% and 105.648%
- fEPSP slope (normalized to baseline) ([2]; AS283 30uM, Time (min) -6): 100.097% and 110.1% and 101.96% and 97.1642% and 103.039% and 95.0989% and 110.591%
- fEPSP slope (normalized to baseline) ([2]; AS283 30uM, Time (min) -7): 104.877% and 108.522% and 113.432% and 111.35% and 97.9505% and 103.53% and 108.737%
- fEPSP slope (normalized to baseline) ([2]; AS283 30uM, Time (min) -8): 104.034% and 98.6561% and 118.004% and 96.7756% and 91.5901% and 101.506% and 110.436%
- fEPSP slope (normalized to baseline) ([2]; AS283 30uM, Time (min) -9): 106.283% and 106.154% and 107.653% and 91.3344% and 103.039% and 101.844% and 106.575%
- fEPSP slope (normalized to baseline) ([2]; AS283 30uM, Time (min) -10): 103.19% and 102.997% and 101.442% and 97.5529% and 105.583% and 95.4361% and 107.965%
- fEPSP slope (normalized to baseline) ([2]; AS283 30uM, Time (min) -11): 100.66% and 97.0777% and 100.58% and 104.937% and 103.675% and 93.0755% and 112.753%
- fEPSP slope (normalized to baseline) ([2]; AS283 30uM, Time (min) -12): 100.379% and 102.602% and 99.6307% and 99.8848% and 96.6784% and 98.4712% and 119.858%
- fEPSP slope (normalized to baseline) ([2]; AS283 30uM, Time (min) -13): 101.784% and 99.0508% and 93.2474% and 96.5813% and 96.6784% and 98.8084% and 114.606%
- effect on LTP induction in WT mice ([2]; AS283 10 or 30 µM): failed to block
- remaining activity at 1 µM (MAPK2(h)): 97%
- remaining activity at 1 µM (Ret(h)): 44%
- remaining activity at 1 µM (CaMKIIδ(h)): 2%
- effect on CaMKII movement to excitatory synapses in response to cLTP ([3]; AS283): did not interfere
- bound CaMKIIα (immunoblot, relative) ([4]; Ca2+/CaM, 10 μM AS283, no nucleotide, GST–GluN2B-c S1303A): 4.303 and 5.73 and 6.682
- enhancing effect on CaMKII binding compared with ATP ([4]; GluN2B S1303A mutant): indistinguishable

Structure (SMILES): CC(C)(C)n1nc(Cc2cccc3ccccc23)c2c(N)ncnc21 [NM-PP1]
- effect on binding of CaMKII F89G to GluN2B in HEK cells [5]: fully enabled binding
- effect on LTP induction in CaMKII F89G slices ([6]; NM-PP1 10 μM): enabled
- LTP time course, normalized response per slice (sheet 5d) ([6]; Time (min) 0): 103.829 and 96.437 and 102.744 and 120.959 and 123.914 and 192.297 and 144.344 and 104.217 and 103.642 and 100.747 and 103.258 and 105.141 and 101.674 and 96.3411 and 105.44
- LTP time course, normalized response per slice (sheet 5d) ([6]; Time (min) 2.33333): 150.168 and 204.285 and 322.186 and 119.321 and 114.899 and 190.522 and 128.721 and 184.151 and 177.879 and 161.407 and 188.756 and 121.03 and 118.847 and 177.028 and 124.93
- LTP time course, normalized response per slice (sheet 5d) ([6]; Time (min) 4.33333): 139.017 and 204.469 and 290.028 and 113.213 and 106.868 and 195.712 and 130.419 and 192.043 and 166.691 and 143.621 and 171.089 and 117.041 and 117.676 and 154.052 and 148.947
- LTP time course, normalized response per slice (sheet 5d) ([6]; Time (min) 6.33333): 131.831 and 176.494 and 247.758 and 112.468 and 113.588 and 169.626 and 124.646 and 168.164 and 143.426 and 132.43
- LTP time course, normalized response per slice (sheet 5d) ([6]; Time (min) -2): 105.316 and 104.903 and 86.159 and 100.7 and 102.934 and 111.991 and 100.871 and 90.8613 and 108.408 and 99.877 and 100.511 and 99.326 and 97.9659 and 101.831 and 107.897
- LTP time course, normalized response per slice (sheet 5d) ([6]; Time (min) -4): 102.838 and 104.535 and 87.5747 and 99.3595 and 101.459 and 104.616 and 103.249 and 75.684 and 101.138 and 101.174 and 99.4129 and 111.767 and 97.478 and 110.855 and 98.9622
- LTP time course, normalized response per slice (sheet 5d) ([6]; Time (min) -6): 101.103 and 99.9338 and 95.867 and 99.0615 and 102.77 and 102.977 and 108.004 and 99.3605 and 103.117 and 97.9481 and 103.441 and 114.539 and 103.918 and 97.8041 and 96.1755
- effect on impaired LTP-induced synaptic CaMKII localization ([7]; F89G mutant, 10 μM NM-PP1): rescued
- CaMKII synaptic enrichment ([7]; NMPP1, before cLTP): 1.457 and 2.177 and 1.336 and 1.561 and 0.9177 and 1.552
- CaMKII synaptic enrichment ([7]; after cLTP in NMPP1): 2.238 and 2.292 and 2.101 and 2.038 and 1.685 and 2.186
- CaMKII synaptic enrichment ([3]; NMPP1, before cLTP): 1.457 and 1.288 and 1.299 and 1.252 and 1.168 and 1.649
- CaMKII synaptic enrichment ([3]; after cLTP in NMPP1): 2.238 and 1.828 and 2.413 and 1.827 and 1.651 and 2.282
